# From patent US20240108612A1, “PHARMACEUTICAL COMPOSITION FOR ENHANCING ANTICANCER EFFECT OF PROTAC, INCLUDING IU1-SERIES UBIQUITIN-SPECIFIC PROTEASE 14 INHIBITOR AS ACTIVE INGREDIENT” (DAEGU GYEONGBUK INSTITUTE OF SCIENCE AND TECHNOLOGY, priority 2021, published 2024)
# Peptide text beside a SMILES is read from it. * marks the point of attachment. Cbz = O=C(OCc1ccccc1)*
# Assays:
# CDK9 protein [1] = biological target: T1, CDK9 protein (Homo sapiens, UniProt P50750); assay: CDK9 protein degradation by Western blotting in HeLa cells; format: cell-based; design: endogenous in cells; host or cells: HeLa (ATCC); settings: for CDK9 protein level when inhibitor is treated together with PROTAC and IU1: proteasome or autophagy inhibitor added to CDK9 PROTAC and IU1, FIG. 4C; for Enhancement of degradation effect of CDK9 PROTAC, comparison with PR-619: PR-619 at different concentrations, FIG. 16
# Method: (§1) HeLa cells (cervical cancer cells) and LNCaP cells (prostate cancer cells) that were used for the experiments of the present disclosure were obtained from the American Type Culture Collection (ATCC), and were cultured in Dulbecco's Modified Eagle's Medium (DMEM, 1×) or RPMI-1640 (1×) medium, each containing 10% FBS, 1% penicillin/streptomycin and 1% L-glutamine, in a 37° C., 5% CO2 cell incubator. For experiments with PROTAC and deubiquitinase (DUB) inhibitors such as IU1 and IU1-47, 5×10^5 (HeLa) or 1×10^6 (LNCaP) cells were seeded into each well of a 12-well plate (Corning, #3513) one day before inhibitor treatment and then cultured in an incubator. Twenty-four hours after incubation, each well was replaced with medium containing serial dilutions of the compound and incubated under the same conditions for no more than 24 hours. As for all controls, the same amount of DMSO, which is a vehicle, was used for that of the compound treated with the experimental groups.
# (§2) To prepare samples for Western blotting, HeLa and LNCaP cells were washed once with ice-cold PBS (1×) and lysed using RIPA buffer (ROCKLAND, MB-030-050) supplemented with protease inhibitor cocktail (Roche), 1 mM PMSF, and 1 mM DTT, or 1% SDS lysis buffer [1% (w/v) SDS, 10 mM Tris-HCl, 1 mM EDTA, pH 8.0]. All lysates were quantified by BCA protein assay (Thermo Fisher Scientific), and then 15 to 30 μg of each lysate was run by SDS-PAGE. Afterwards, the experiment was performed in the following order: transfer to PVDF membrane, treatment with a blocking solution (5% BSA or 5% non-fat dry milk in 1× TBST), treatment with designated primary antibody, and treatment with HRP-linked secondary antibody. Between treatments, washing was performed several times with excess 1× TBST. Each membrane was image-analyzed and quantified for protein signals using ChemiDoc (iBright750, Invitrogen).
# Data obtained through Western blotting were quantified using iBright analysis software, and the levels of all target proteins were normalized with GAPDH. After quantification and normalization, DC50 values of the compounds used in the experiments of the present disclosure were derived through nonlinear regression using Graph Pad Prism software.
# HeLa cells [2] = settings: FIG. 8
# Method: To measure cell viability by treatment with the compound of the present disclosure, HeLa and LNCaP cells were seeded in a 96-well plate (SPL, #33396) at 500 cells/well (HeLa) or 3000 cells/well (LNCaP). The cells were seeded and cultured in an incubator at 37° C. and 5% CO2. Twenty four hours later, the medium was replaced with compound-containing medium and incubated under the same conditions in an incubator for 48 hours. Afterwards, cell viability was measured through luminescence analysis in an Envision microplate reader (Perkin Elmer) using the ATP-lite 1 step assay kit (Perkin Elmer).
# The results measured in the experiments to confirm cell viability were initially processed using Excel, and then the IC50 values were derived through nonlinear regression analysis using Prism software.
# BRD4 protein = biological target: T2, BRD4 protein (Homo sapiens, UniProt O60885); assay: BRD4 protein degradation by Western blotting; format: cell-based; settings: 50 μM IU1 with BRD4 PROTAC; 1% SDS lysis buffer or RIPA buffer; FIG. 11
# T2 construct: endogenous in cells
# Method: as §2
# In order to determine whether the USP14 inhibitor of the present disclosure can enhance protein degradation capability for PROTACs other than CDK9 PROTACs, which were confirmed through experiments in Examples 2 and 4, it was confirmed whether the effect of degradation of BRD4 protein by BRD4 PROTAC was enhanced by IU1 treatment. […]
# CDK9 protein [3] = biological target: T1, CDK9 protein; assay: CDK9 protein degradation by Western blotting in LNCaP cells; format: cell-based; design: endogenous in cells
# Method: as §1, with “Twenty-four hours after incubation, each well was replaced with medium containing serial dilutions of the compound and incubated under the same conditions for no more than 24 hours. As for all controls, the same amount of DMSO, which is a vehicle, was used for that of the compound treated with the experimental groups.” left out
# To prepare samples for Western blotting, HeLa and LNCaP cells were washed once with ice-cold PBS (1×) and lysed using RIPA buffer (ROCKLAND, MB-030-050) supplemented with protease inhibitor cocktail (Roche), 1 mM PMSF, and 1 mM DTT, or 1% SDS lysis buffer [1% (w/v) SDS, 10 mM Tris-HCl, 1 mM EDTA, pH 8.0]. All lysates were quantified by BCA protein assay (Thermo Fisher Scientific), and then 15 to 30 μg of each lysate was run by SDS-PAGE. […] Each membrane was image-analyzed and quantified for protein signals using ChemiDoc (iBright750, Invitrogen).
# Data obtained through Western blotting were quantified using iBright analysis software, and the levels of all target proteins were normalized with GAPDH. […]
# SHP-2 protein = biological target: T3, SHP-2 protein (Homo sapiens, UniProt Q06124); assay: SHP-2 protein degradation by Western blotting in HeLa cells; format: cell-based; settings: IU1 in combination with SHP-2 PROTAC, FIGS. 12A, 12B
# T3 construct: endogenous in cells; host or cells: HeLa (ATCC)
# T3 sequence (Q06124 1-593): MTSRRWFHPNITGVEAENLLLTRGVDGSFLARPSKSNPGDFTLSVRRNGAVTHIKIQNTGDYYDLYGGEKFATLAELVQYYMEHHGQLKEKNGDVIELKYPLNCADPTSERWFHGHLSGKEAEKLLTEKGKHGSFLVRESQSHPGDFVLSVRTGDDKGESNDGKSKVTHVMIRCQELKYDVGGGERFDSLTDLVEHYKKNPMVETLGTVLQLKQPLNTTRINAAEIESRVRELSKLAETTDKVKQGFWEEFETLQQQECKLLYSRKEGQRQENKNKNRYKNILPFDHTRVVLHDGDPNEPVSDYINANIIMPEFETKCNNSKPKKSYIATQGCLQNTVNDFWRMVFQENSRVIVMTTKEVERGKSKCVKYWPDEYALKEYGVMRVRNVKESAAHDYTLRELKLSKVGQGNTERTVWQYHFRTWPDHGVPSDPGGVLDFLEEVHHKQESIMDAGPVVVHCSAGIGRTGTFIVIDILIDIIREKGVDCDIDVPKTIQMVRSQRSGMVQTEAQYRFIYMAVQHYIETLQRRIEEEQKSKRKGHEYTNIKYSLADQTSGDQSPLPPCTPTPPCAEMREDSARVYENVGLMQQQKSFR
# Method: as §2
# In addition, for SHP-2 PROTAC, which is another VHL-based PROTAC other than BRD4 PROTAC, it was confirmed whether the degradation effect for SHP-2 protein was enhanced under experimental conditions similar to those in the experiment in FIG. 7.
# HeLa cells [4] = assay: Cancer cell colony formation assay in HeLa cells; format: cell-based; settings: CDK9 PROTAC 10-100 nM and IU1-47 20 μM in combination; one week; FIG. 19
# Method: Afterwards, the medium was replaced with a compound-containing medium, and then the cells were further cultured in the incubator under the same conditions for one week. The cultured cancer cells at the end were stained with 0.25% crystal violet staining solution containing 20% methanol for 1 hour, and then washed with ultrapure distilled water and dried at room temperature for one day. Cell images were captured using a camera or iBright CL750 (Thermo Fisher), the number of colonies was analyzed using iBright analysis software, and the size of colonies was analyzed using ImageJ software.
# As another example to confirm the anticancer effect by the degradation of CDK9 protein enhanced by the combined treatment of the IU1-series compound and CDK9 PROTAC, which was confirmed in Examples as described above, different concentrations of CDK9 PROTAC (10, 25 , 50, 75, 100 nM) and IU1-47 (20 μM) compounds were used separately or in combination for treatment, and one week later, the degree of colony formation of HeLa cancer cells by the effect of enhancing CDK9 PROTAC protein degradation capability by IU1-series compound, was confirmed.
# HeLa cells [5] = assay: Cancer cell migration assay in HeLa cells; format: cell-based; settings: CDK9 PROTAC 40 nM and IU1-47 20 μM in combination; every 12 hours; FIG. 18
# Method: Microscopic images were taken using an inverted fluorescence microscope (Olympus) through a 10× magnification lens every 12 hours, and the width of the intercellular region was measured using ImageJ software.
# To this end, HeLa cells were treated with CDK9 PROTAC (40 nM) and IU1-47 (20 μM) compounds separately or in combination, and the migration of HeLa cells was confirmed every 12 hours.
# T1 sequence (P50750 whole entry): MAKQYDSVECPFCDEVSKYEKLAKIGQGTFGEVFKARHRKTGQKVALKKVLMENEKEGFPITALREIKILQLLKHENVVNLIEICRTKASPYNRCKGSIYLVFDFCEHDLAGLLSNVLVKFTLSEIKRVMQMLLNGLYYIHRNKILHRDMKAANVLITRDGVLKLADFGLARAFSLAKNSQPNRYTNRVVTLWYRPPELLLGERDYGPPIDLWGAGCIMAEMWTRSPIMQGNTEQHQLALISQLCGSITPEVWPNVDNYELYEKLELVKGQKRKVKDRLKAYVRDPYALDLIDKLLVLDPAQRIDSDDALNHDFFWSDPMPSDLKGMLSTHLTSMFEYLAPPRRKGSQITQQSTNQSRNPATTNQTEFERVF
# T1 sequence (O60563 whole entry partner): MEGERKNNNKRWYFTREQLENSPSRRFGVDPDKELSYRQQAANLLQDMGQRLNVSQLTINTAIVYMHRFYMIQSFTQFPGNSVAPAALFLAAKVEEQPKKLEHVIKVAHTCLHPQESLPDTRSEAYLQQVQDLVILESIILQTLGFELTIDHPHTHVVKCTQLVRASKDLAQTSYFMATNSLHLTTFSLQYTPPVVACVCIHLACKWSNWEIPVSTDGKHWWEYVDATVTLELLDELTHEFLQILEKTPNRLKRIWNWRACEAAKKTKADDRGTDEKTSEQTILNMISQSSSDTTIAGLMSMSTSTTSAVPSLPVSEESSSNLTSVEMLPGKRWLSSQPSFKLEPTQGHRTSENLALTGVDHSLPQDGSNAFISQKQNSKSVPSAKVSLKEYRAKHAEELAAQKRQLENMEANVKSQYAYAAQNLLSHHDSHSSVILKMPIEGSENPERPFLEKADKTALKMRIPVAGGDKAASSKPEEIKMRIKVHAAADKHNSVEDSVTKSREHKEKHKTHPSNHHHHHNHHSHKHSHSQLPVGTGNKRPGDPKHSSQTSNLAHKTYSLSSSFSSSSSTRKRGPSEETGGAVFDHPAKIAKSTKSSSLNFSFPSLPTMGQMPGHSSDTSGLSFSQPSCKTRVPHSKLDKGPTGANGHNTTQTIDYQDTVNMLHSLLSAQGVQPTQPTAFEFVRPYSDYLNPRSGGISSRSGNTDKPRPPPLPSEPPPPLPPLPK
compound,measurement,setting,value
"CS(=O)(=O)c1ccc(NC(=O)c2cc(C#N)c(Sc3c(Cl)cncc3Cl)s2)cc1 [P50429, reference compound]",Enhancement of degradation effect of CDK9 PROTAC,"CDK9 protein [1]; HeLa, P50429 1 μM and 10 μM with CDK9 PROTAC, FIG. 17",did not enhance the degradation effect of PROTAC
"CO/C1=C\C(C)=C\[C@@H](C)[C@@H](O)[C@@H](C)C/C(C)=C/C=C/[C@H](OC)[C@@H]([C@@H](C)[C@@H](O)[C@H](C)[C@@]2(O)C[C@@H](O)[C@H](C)[C@@H](C(C)C)O2)OC1=O [bafilomycin A1, reference compound]",CDK9 protein level when inhibitor is treated together with PROTAC and IU1,CDK9 protein [1],the degradation of CDK9 protein by the treatment with PROTAC and IU1 was still observed
"N#CSc1cc(SC#N)c(N)nc1N [PR-619, reference compound]","Enhancement of degradation effect of CDK9 PROTAC, comparison with PR-619",CDK9 protein [1]; HeLa,did not show the effect of enhancing the protein degradation of PROTAC at all treatment concentrations
"CC(C)C[C@@H](C=O)NC(=O)[C@H](CC(C)C)NC(=O)[C@H](CC(C)C)NC(=O)OCc1ccccc1 [MG132, reference compound] (Cbz-Leu-Leu-Leu-aldehyde)",CDK9 protein level when inhibitor is treated together with PROTAC and IU1,CDK9 protein [1],the level of CDK9 protein was recovered similar to the control group
"Cc1cc(C(=O)CN2CCCC2)c(C)n1-c1ccc(F)cc1 [IU1, 1-[1-(4-fluorophenyl)-2,5-dimethylpyrrol-3-yl]-2-pyrrolidin-1-ylethanone]","Anticancer effect of CDK9 PROTAC (IC50, cell growth inhibition) with IU1 in combination",HeLa cells [2],significantly increased
same,"Enhancement of protein degradation capability of CDK9 PROTAC through the DC50 value, versus vehicle control","CDK9 protein [1]; HeLa, 75 μM of IU1 in combination",about 5 times
same,Time-dependent effect on degradation effect of CDK9 PROTAC,"CDK9 protein [1]; HeLa, CDK9 PROTAC 100 nM, IU1 50 μM, 0, 1, 3, 6, 12, 24 h, FIG. 15",accelerated the degradation effect of PROTAC
same,Enhancement of CDK9 protein degradation capability by CDK9 PROTAC versus vehicle control,"CDK9 protein [1]; HeLa, CDK9 PROTAC 0.1-250 nM, especially high concentration of IU1, FIGS. 7A, 7B",highly enhanced the CDK9 protein degradation capability
same,"Enhancement of protein degradation effect, CDK9 PROTAC concentration fixed","CDK9 protein [1]; HeLa, CDK9 PROTAC 5, 10, 20, 25 nM, IU1 10-100 μM, FIGS. 6A, 6B",the protein degradation effect was enhanced in an IU1 concentration-dependent manner at all concentrations
same,CDK9 protein degradation effect of CDK9 PROTAC on combined treatment,"CDK9 protein [1]; HeLa, IU1 50 μM with CDK9 PROTAC 1, 10, 25, 50, 100 nM, FIG. 4A",substantially increased
same,"Enhancement of CDK9 degradation effect by CDK9 PROTAC, IU1 concentration fixed","CDK9 protein [1]; HeLa, IU1 10, 25, 75, 100 μM, CDK9 PROTAC 1-100 nM, FIGS. 5A, 5B",enhanced the CDK9 degradation effect by CDK9 PROTAC in a PROTAC concentration-dependent manner at all concentrations except for the IU1 concentration at 10 μM
same,CDK9 protein degradation on treatment with IU1 alone,"CDK9 protein [1]; HeLa, maximum IU1 treatment concentration 50 μM, FIG. 4B",degradation of CDK9 protein did not occur
same,Enhancement of BRD4 protein degradation effect of BRD4 PROTAC,BRD4 protein,concentration-dependent enhancement of the BRD4 protein degradation effect
same,"Enhancement of CDK9 degradation effect by CDK9 PROTAC, IU1 concentration fixed","CDK9 protein [3]; IU1 10, 25, 75, 100 μM (all concentrations), CDK9 PROTAC 1-50 nM, FIGS. 10A, 10B",enhanced the CDK9 degradation effect by CDK9 PROTAC in a PROTAC concentration-dependent manner
same,"Degradation effect for CDK9 protein, combination versus CDK9 PROTAC alone","CDK9 protein [3]; IU1 and CDK9 PROTAC in combination, FIG. 9",significantly increased
same,Enhancement of SHP-2 protein degradation by SHP-2 PROTAC,SHP-2 protein,SHP-2 PROTAC concentration-dependent enhancement of SHP-2 protein degradation
"Cc1cc(C(=O)CN2CCCCC2)c(C)n1-c1ccc(Cl)cc1 [IU1-47, 1-[1-(4-chlorophenyl)-2,5-dimethyl-1H-pyrrol-3-yl]-2-(1-piperidinyl)ethanone]","Colony formation of HeLa cancer cells, combination versus either alone",HeLa cells [4],significantly inhibited
same,"Enhancement of protein degradation of PROTAC from DC50 values, versus CDK9 PROTAC alone","CDK9 protein [1]; HeLa, 20 μM IU1-47 in combination with CDK9 PROTAC, FIG. 13C",about 6 times
same,"Enhancement of degradation of PROTAC, CDK9 PROTAC concentration fixed","CDK9 protein [1]; HeLa, CDK9 PROTAC 5, 10, 20 nM, varying IU1-47, FIG. 14",significantly enhanced the degradation of PROTAC in a concentration-dependent manner
same,CDK9 degradation on treatment with IU1-47 alone,"CDK9 protein [1]; HeLa, FIG. 14",did not result in any degradation of CDK9
same,Enhancement of protein degradation capability of CDK9 PROTAC versus vehicle,"CDK9 protein [1]; HeLa, IU1-47 10 μM, 20 µM, 30 μM, CDK9 PROTAC 0.1-250 nM, FIGS. 13A, 13B",significantly enhanced at all concentrations of IU1-47
same,"Enhancement of degradation effect of CDK9 PROTAC, comparison with P50429","CDK9 protein [1]; HeLa, IU1-47 20 μM, FIG. 17",significantly enhanced the degradation effect of PROTAC
same,"Enhancement of degradation effect of CDK9 PROTAC, comparison with PR-619",CDK9 protein [1]; HeLa,significantly enhanced the degradation effect of PROTAC
same,"Targeted protein degradation capability of PROTAC, IU1-47 compared with IU1","CDK9 protein [1]; in combination with PROTAC, see Example 6",more increased compared to when IU1 was treated in combination with PROTAC
same,"Migration or wound healing effect of HeLa cells, combination versus either alone",HeLa cells [5],significantly inhibited
